The subject of the assay is NCI-H460. The assay is described as follows: Cytotoxicity against human NCI-H460 cells incubated for 24 hrs by MTT assay. In kind it is functional, cell-based. The note with it: NCI-H460, 24 h. Background: Tetrazolium dyes change colour on reduction, which living cells bring about.

Molecules are shown by their SMILES. A value given as a limit tells only on which side of the number the result lay.

Consider `CC(C)C[C@H]1NC(=O)[C@@H]2CCCN2C1=O`, for which the IC50 is > 50 µM.
Under `O=c1oc(-c2ccccc2O)cc2cc3c(c(O)c12)OCO3` stands > 50 µM.
On to `CCCCC(CC)COC(=O)c1ccccc1C(=O)OCC(CC)CCCC` (centres undefined) [BIS(2-ETHYLHEXYL) PHTHALATE], for which the IC50 is > 50 µM.
As to `CC(=O)O[C@H]1CC[C@@]2(C)C(=CC[C@H]3[C@@H]4C[C@@H]5O[C@]6(CC[C@@H](C)CO6)[C@@H](C)[C@@H]5[C@@]4(C)CC[C@@H]32)C1`, the IC50 was > 50 µM.
Under `C[C@@H]1CC[C@@]2(OC1)O[C@H]1C[C@H]3[C@@H]4CC=C5C[C@@H](O[C@@H]6O[C@H](CO)[C@@H](O[C@@H]7O[C@H](CO)[C@@H](O)[C@H](O)[C@H]7O)[C@H](O)[C@H]6O[C@@H]6O[C@@H](C)[C@H](O)[C@@H](O)[C@H]6O)CC[C@]5(C)[C@H]4CC[C@]3(C)[C@H]1[C@@H]2C` [DELTONIN] stands 5.81 µM; under `COc1cc2ccc3c(-c4c(OC)cc(O)c5c4ccc4cc(OC)c(O)cc45)c(OC)cc(O)c3c2cc1O`, 23.1 µM; under `C[C@H]1[C@H]2[C@H](C[C@H]3[C@@H]4CC=C5C[C@@H](O)CC[C@]5(C)[C@H]4CC[C@]23C)O[C@]12CC[C@@H](CO)CO2`, > 50 µM.
Regarding `CC[C@H](CC[C@@H](C)[C@H]1CC[C@H]2[C@@H]3CC=C4C[C@@H](O[C@@H]5O[C@H](CO)[C@@H](O)[C@H](O)[C@H]5O)CC[C@]4(C)[C@H]3CC[C@]12C)C(C)C` [SITOGLUSIDE], the IC50 is > 50 µM.
For `O=C(/C=C/C=C/c1ccc(O)cc1)CCc1ccc(O)cc1`, the IC50 was > 50 µM.
Under `C[C@@H]1CC[C@@]2(OC1)O[C@H]1C[C@H]3[C@@H]4CC=C5C[C@@H](O[C@@H]6O[C@H](CO)[C@@H](O[C@@H]7O[C@@H](C)[C@H](O)[C@@H](O)[C@H]7O)[C@H](O)[C@H]6O[C@@H]6O[C@@H](C)[C@H](O)[C@@H](O)[C@H]6O)CC[C@]5(C)[C@H]4CC[C@]3(C)[C@H]1[C@@H]2C` [DIOSCIN] stands 4.56 µM.
Under `C[C@@H]1CC[C@@]2(OC1)O[C@H]1C[C@H]3[C@@H]4CC=C5C[C@@H](O[C@@H]6O[C@H](CO)[C@@H](O)[C@H](O)[C@H]6O[C@@H]6O[C@@H](C)[C@H](O)[C@@H](O)[C@H]6O)CC[C@]5(C)[C@H]4CC[C@]3(C)[C@H]1[C@@H]2C` [OPHIOPOGONIN C] stands 5.04 µM.
The figure for `C[C@@H]1CC[C@@]2(OC1)O[C@H]1C[C@H]3[C@@H]4CC=C5C[C@@H](O)CC[C@]5(C)[C@H]4CC[C@]3(C)[C@H]1[C@@H]2C` [DISOGENIN] is > 50 µM; for `O=C1O[C@H](c2ccccc2)Cc2cc(O)cc(O)c21` it is > 50 µM.
For the compound `O=C(C[C@@H]1C[C@@H](O)C[C@H](c2ccccc2)O1)c1ccccc1`, the IC50 was > 50 µM.

As a reminder, the IC50 is the point on the concentration scale where inhibition reaches its midpoint. A low value points to inhibition by little substance.
